According to patent US10653779B2, “Formulations with reduced oxidation” (Genentech, Inc., priority 2013, dated 2020):

Tests used:
[1] = Cyclic voltammetry (CV) screening of oxidation potentials; type: physicochemical; details: glassy carbon working electrode, 0.2 M lithium perchlorate
Protocol: The oxidation/reduction characteristics of the compounds were investigated. Several compounds, including L-Trp and derivatives, were evaluated for the protection of Trp oxidation in proteins using cyclic voltammetry (CV) and rank ordered based on their oxidation potentials (Table 2). Specifically, the candidate antioxidants were dissolved in deionized water and then added to a 0.2 M lithium perchlorate electrolyte solution. […] Solutions were scanned from −0.10 V to +1.50 V at a scan rate of either 100 or 500 mV/sec. The analytical cell was purged for four minutes with nitrogen before scanning of each antioxidant solution. The input was a linear scan of the potential of a working electrode, and the output was measurement of the resulting current. […] Redox reactions were characterized by sharp increases or decreases in current (peaks). The potential at which an oxidation reaction occurred was referred to as the anodic peak potential (or oxidation potential), and the potential at which a reduction occurred was referred to as is the cathodic peak (or reduction) potential.

[2] = H2O2 generation by free L-Trp upon light exposure for 3 hours (Amplex assay); type: physicochemical
Protocol: It was previously reported that L-Trp produced H2O2 via superoxide ion and in a sub-stoichiometric fashion while antibodies under similar conditions were producing catalytic amounts (Wentworth et al., Science 293(5536):1806-11 (2001); McCormick et al., Journal of the American Chemical Society 100:312-313 (1978)). To test the susceptibility of free L-Trp under pharmaceutically relevant conditions, such as under both ICH and ambient light conditions, formulations comprising 0.32 mM to 7.5 mM of L-Trp were exposed for 3 hours at 250 W/m^2 UV light and about 150 k lux visible light. Samples were taken and analyzed immediately via the Amplex assay to detect the amount of H2O2 generated under these conditions. […] When L-Trp was incubated with a combination of 50 mM NaN3 and 150 U superoxide dismutase (SOD) or SOD alone, significant amounts of H2O2 were still detected in the samples not containing NaN3.

[3] = test system: mAb1; assay: mAb1 Fenton stress study (H2O2 + Fe); Fab/Fc oxidation by RP-HPLC; type: physicochemical, human; details: 1 mM, 10 ppm H2O2, 0.2 mM Fe(III), 40° C. for 3 hours
Protocol: Antioxidants were added at a final concentration of 1 mM. […] After incubation, each reaction was quenched by addition of 100 mM L-Met and then prepared for analysis by reverse-phase HPLC as described above.
The Fenton reaction, using a mixture of H2O2 and Fe ions, generates oxidation through a metal catalyzed, hydroxyl radical reaction (Prousek et al., Pure and Applied Chemistry 79(12):2325-2338 (2007)). This reaction generated Fab, i.e. tryptophan, oxidation in mAb1. The reaction was also carried out in the presence of select antioxidants that were useful against both AAPH and light induced oxidation as reported above. Data related to the antioxidant properties against Fenton mediated reaction were analyzed using the RP-HPLC assay as described above. The Fenton reaction used 10 ppm of H2O2 and 0.2 mM of Fe(III). The reaction was incubated at 40° C. for 3 hours, quenched with 100 mM L-Met and analyzed using RP-HPLC after papain digest. All samples were the average of three separate vials, and mAb1 control (Ref Mat) was one vial with five independent injections on the HPLC. […] In regards to protection against Fc oxidation, the tested excipients (other than salicylic acid) performed slightly better than L-Trp.

[4] = test system: mAb1; assay: Ambient light exposure of 50 mg/mL mAb1 formulations containing L-Trp (Amplex assay, RP-HPLC); type: physicochemical, human
Description: While confirming the photosensitivity of free L-Trp under ICH light conditions, the effect of ambient light that was typically seen in laboratories was studied. Measurements using a DLM1 digital light meter in various labs indicated an average of 300 lux on a lab benchtop (with white fluorescent lighting), an average of 3000 lux in a laminar flow hood (with white fluorescent lighting) and about 10000 lux for a windowsill exposed to southeast sunlight. […] Peroxide production increased with both luminosity (300, 3000, and 10000 lux) and time (1, 3, and 7 days). […] These levels of light exposure and time were determined to be pharmaceutically relevant for drug substance handling under ambient light and temperature before fill/finish operations and potentially while inspecting drug product vials.

[5] = Photosensitivity screening: H2O2 formation by antioxidant candidates upon light exposure (Amplex Ultra Red Assay); type: physicochemical
Protocol: As a screening tool, antioxidant candidates were exposed to light for four hours at 250 W/m^2 and the resulting H2O2 formation was quantified by the Amplexassay. Specifically, antioxidants were prepared to 1 mM in 20 mM histidine acetate buffer at pH 5.5. The 1 mM antioxidant solutions were aliquoted into glass vials (2 mL/glass vial) and exposed to four hours of light at 250 W/m^2 in an Atlas SunTest CPS+ Xenon Test Instrument (Chicago, Ill.). Total UV dose was 90 watt-hours/square meter and total visible dose was 0.22 million lux hours over the 4-hour period. Control vials were wrapped in aluminum foil and treated similarly. The amount of hydrogen peroxide generated after exposure to light was measured using the Amplex® Ultra Red Assay (Invitrogen, Carlsbad, Calif.) following the manufacturer's recommended procedure. On addition of horseradish peroxidase (HRP), the dye reacted 1:1 stoichiometrically with H2O2, resulting in the production of fluorescent oxidation product resorufin. In this study, fluorescence readings were obtained using a Spectra Max M2 Micro-plate Reader (Molecular Devices, Sunnyvale, Calif.) with excitation and emission set at 560 nm and 590 nm, respectively. Final H2O2 concentrations were determined using a standard curve ranging from 0 μm to 20 μm. […]

## N[C@@H](Cc1c[nH]c2ccccc12)C(=O)O [L-Trp, L-Tryptophan]
[1]
  Oxidation Potential (anodic peak): 0.938 V vs Ag/AgCl
[2]; 0.32 mM to 7.5 mM L-Trp, 3 hours at 250 W/m^2 UV light and about 150 k lux visible light
  H2O2 generated by free L-Trp upon light exposure: large quantity of H2O2
[2]; 50 mM sodium azide, 3 hours light
  H2O2 generation by L-Trp in the presence of sodium azide: reduced greatly
[3]
  Protection of Fab oxidation with respect to the no excipient case: about 25%
[4]; 50 mg/mL mAb1 with 3.2 mM L-Trp, 10 days ambient light
  Heavy chain Fab oxidation (W53) with increased luminosity (in words): increased heavy chain Fab oxidation
[4]; 50 mg/mL mAb1 with 3.2 mM L-Trp, ambient light 300 lux
  % Fc oxidation in mAb1: 5%
[4]; 50 mg/mL mAb1 with 3.2 mM L-Trp, ambient light 10000 lux
  % Fc oxidation in mAb1: 40%
[4]; L-Trp in formulation buffers containing 50 mg/mL mAb1, 300, 3000, 10000 lux, 1, 3, 7 days
  Hydrogen peroxide produced under ambient light: in the micromolar range
[5]; 1 mM in 20 mM histidine acetate pH 5.5, four hours of light at 250 W/m^2
  (H2O2 produced by Compound)/(H2O2 produced by L-Trp): 1
[5]; 1 mM, 20 mM L-His-acetate pH 5.5, 4 h light, 0.22 million lux hours
  H2O2 production upon light exposure compared to L-Trp (in words): produced more H2O2
